Data published in article PMC4519333, “Preclinical Evaluation of a Potential GSH Ester Based PET/SPECT Imaging Probe DT(GSHMe)2 to Detect Gamma Glutamyl Transferase Over Expressing Tumors” (PLoS ONE, 2015).
Read-outs that look alike come from different tables or passages of the source.

Assays:
[1] = tested on: athymic mice bearing BMG-1 tumors; experiment: Micro PET/CT small animal imaging with ROI analysis; type: in vivo; conditions: blocking dose ~5 mg/Kg native GSH, PET 2 h post injection, BMG-1 tumor
Procedure: (§1) Athymic male mice were xenografted with BMG-1 human tumor cell line (0.1 mL of cell suspension containing ~5 ×10^6 BMG cells) in the flank region of the hind limb. BALB/c mice were inoculated with EAT murine tumor cells (5–6 × 10^6) in the flank region of the right hind limb. An inflammation lesion was induced in the fore limb by intramuscular injection of turpentine oil (100 μL) 48 h before imaging. For Scintigraphy, (n = 6) mice used for imaging, biodistribution studies (n = 32 mice) for two experiments 4 mice/group for 4 time points and blood kinetics (n = 18).
(§2) Xenografted experimental models were intravenously administered 0.1mg/Kg body weight ^68Ga-DT(GSHMe)2 (37 ± 2.2 MBq) and 0.25 mg/Kg Body weight ^99mTc-DT(GSHMe)2 (29.6 ± 1.8 MBq) via tail vein for PET and SPECT respectively. Blocking dose of ~ 5 mg/Kg body weight of GSH was administered intravenously in the experimental animal. The acquisition was performed 2 h post injection. The ratios were calculated from counts per pixel of individual ROI (Region of interest) for semi-quantitative analysis to understand the distribution and localization.

in vivo [2] = experiment: in vivo; parameters: species or system mice; conditions: BALB/c, mouse, iv, 0.1 mg/kg body weight, total radioactivity
Procedure: Biodistribution studies were also performed on tumor bearing BALB/c mice. 0.1 mg/Kg body weight ^68Ga-DT(GSHMe)2 (~25 ± 1.5 MBq) was injected through tail vein and at different time points viz., 30 min, 1 and 2 h animals were sacrificed and organs were dissected out. Uptake of radioactivity in individual organ is noted and %ID/g is then calculated.

EAT cells = experiment: Time course and kinetics of uptake; type: cell-based, mice
Procedure: EAT cells were isolated from ascitic fluid of BALB/c mice and were diluted to 3 x 10^6 cells/mL. Cells were aliquoted in different micro centrifuge tubes and were treated with 200 μM of ^99mTc-DT(GSHMe)2 for different time intervals (0, 10, 30 sec, 1, 2, 5, 10, 30 min, 1 and 2 h). After the treatment, cells were centrifuged at 2000 rpm for 5 min and supernatant was carefully removed. Followed by three washes of cold saline and acidic wash buffer, cells were centrifuged to yield the pellet. The pellet was dissolved in 500 μL of lysis buffer. The amount of radioactivity (CPM) in cell lysate was determined by gamma counter. Later, after the activity decayed, total protein from the cells was estimated by BCA method of protein estimation. Absorbance values were determined at 595 nm on a multi plate reader. A standard plot was constructed taking various dilutions of BSA. Drug uptake was calculated and plotted.

[3] = target: T1, GGT on the surface of BMG-1 cells (Homo sapiens, UniProt P19440); experiment: Cell binding studies on BMG-1 cells (Scatchard); conditions: 2 h, 37°C, Scatchard plot
T1 construct: endogenous in cells; host or cells: BMG-1 cerebral glioma cells (monolayer)
T1 sequence (P19440 1-380 limits assumed): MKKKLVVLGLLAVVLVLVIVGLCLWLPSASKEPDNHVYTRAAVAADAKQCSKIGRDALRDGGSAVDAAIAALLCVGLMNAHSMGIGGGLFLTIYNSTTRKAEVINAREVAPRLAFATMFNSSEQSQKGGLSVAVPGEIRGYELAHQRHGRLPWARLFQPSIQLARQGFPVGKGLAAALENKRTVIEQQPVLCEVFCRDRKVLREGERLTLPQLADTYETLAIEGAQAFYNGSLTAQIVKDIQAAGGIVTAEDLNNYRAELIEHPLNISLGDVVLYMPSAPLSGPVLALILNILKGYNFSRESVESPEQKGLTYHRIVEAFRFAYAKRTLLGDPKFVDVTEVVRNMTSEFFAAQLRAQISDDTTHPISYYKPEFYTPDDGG
T1 sequence (P19440 381-569 limits assumed): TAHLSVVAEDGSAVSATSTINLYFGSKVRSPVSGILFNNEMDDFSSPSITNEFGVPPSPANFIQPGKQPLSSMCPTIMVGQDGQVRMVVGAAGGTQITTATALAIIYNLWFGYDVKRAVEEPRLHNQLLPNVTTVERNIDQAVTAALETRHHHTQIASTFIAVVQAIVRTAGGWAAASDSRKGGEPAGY
Procedure: (§3) The specificity of ^99[…])2 to bind externally on tumor cells were examined by receptor binding assays on EAT cells isolated from the ascitic fluid of BALB/c Mice. Cells were diluted to 2 x 10^6 cells per mL and were aliquoted in different micro centrifuge tubes. Cells were washed twice with HBSS and finally resuspended in 1 mL of HBSS. Cells were then treated with various concentration of ^99[…]) for 2 h at 37°C. […] Specific binding was obtained by subtracting nonspecific binding from total binding. At the end of each incubation time, the cells were washed with cold PBS twice and pelleted down. Finally, cells were lysed and cell-associated radioactivity was determined by gamma counting. The total protein content of cells was estimated by Bicinchoninic acid (BCA) method. Similarly the binding experiments were performed on monolayer of BMG-1 cells (2 x 10^6) and were treated with ^99[…]) for 2 h at 37°C. […] Cells were lysed and cell associated radioactivity was determined. The total protein content was determined by BCA method. Scatchard Plot were plotted to determine Kd and Bmax.

[4] = tested on: BALB/c mice bearing EAT tumor and turpentine oil inflammation; experiment: SPECT imaging, tumor versus inflammation; type: in vivo; conditions: 2 h post i.v., EAT tumor hind limb, inflammation fore limb
Procedure: as §1, §2

[5] = target: T2, GGT on the surface of EAT cells (Mus musculus, UniProt Q60928); experiment: Cell binding studies on EAT cells (Scatchard); parameters: species or system mice; conditions: 2 h, 37°C, Scatchard plot
T2 construct: endogenous in cells; host or cells: Ehrlich Ascites tumor (EAT) cells, strain F-3, passaged in BALB/c mice
T2 sequence (Q60928 1-379 limits assumed): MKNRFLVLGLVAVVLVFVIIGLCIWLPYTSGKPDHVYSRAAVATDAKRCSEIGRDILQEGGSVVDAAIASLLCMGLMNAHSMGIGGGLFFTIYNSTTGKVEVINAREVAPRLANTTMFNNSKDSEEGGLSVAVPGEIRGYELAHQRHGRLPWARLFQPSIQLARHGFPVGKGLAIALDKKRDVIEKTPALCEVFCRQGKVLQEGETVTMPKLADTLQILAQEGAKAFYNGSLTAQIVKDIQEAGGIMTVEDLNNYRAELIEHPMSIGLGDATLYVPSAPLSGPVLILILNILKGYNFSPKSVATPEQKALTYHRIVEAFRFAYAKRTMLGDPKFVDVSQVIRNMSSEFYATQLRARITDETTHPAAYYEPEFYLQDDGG
T2 sequence (Q60928 380-568 limits assumed): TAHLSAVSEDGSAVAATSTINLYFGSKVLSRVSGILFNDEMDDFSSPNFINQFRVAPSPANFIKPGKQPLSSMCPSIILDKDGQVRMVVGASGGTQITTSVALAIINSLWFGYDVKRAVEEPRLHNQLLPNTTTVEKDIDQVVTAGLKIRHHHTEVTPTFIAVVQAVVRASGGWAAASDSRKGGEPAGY
Procedure: as §3

in vivo [6] = experiment: in vivo; parameters: species or system mice; conditions: BALB/c, mouse, iv, 0.25 mg/kg body weight, total radioactivity
Procedure: Radiolabeled ^99mTc-DT(GSHMe)2 (0.25 mg/Kg body weight) in a volume of 150 μL (11.1 ± 1.2 MBq) was carefully injected through the tail vein of each BALB/c mice xenografted with EAT Tumors in the hind limb. At 30 min, 1, 2 and 4 h post injection mice were sacrificed and different organs and tissues were dissected out. All the organs and tissues were rinsed in saline, weighed and counted in a gamma counter. Uptake of the radiotracer in each tissue was calculated and expressed as a percentage injected dose per gram of the tissue (% ID/g) and corrected for ^99mTc decay.

[7] = Log P calculation (octanol/PBS partition); type: physicochemical
Procedure: The value of partition coefficient of radiolabeled […] calculated and expressed as log P. The radiolabeled […] passed through 0.22 μ filter and approximately 10.2 ± 1.5 MBq of labeled compound was diluted in PBS, pH 7.4. To this equal volume of 1-octanol was added. The mixture was thoroughly vortexed for 10 min and then centrifuged at 5000 rpm for 5 min. […] The measurement was repeated thrice. The partition coefficient (P) was calculated using the following equation wherein, P = (counts in octanol fraction) / (counts in PBS fraction). For each value of P, log P value is calculated.

[8] = parameters: species or system mice; conditions: mouse, in vivo, iv
Procedure: Blood clearance was performed to observe the rate of clearance of drug post administration. Radiolabeled conjugate 0.25 mg/Kg body weight of ^99mTc-DT(GSHMe)2 (22.2 ± 2.8 MBq) was administered intravenously through the tail vein of the mice. Blood samples were withdrawn at different time intervals (5, 15, 30 min, 1, 2 and 24 h). Decay corrected radioactivity is expressed as % ID, assuming a weight based theoretical blood volume as 7% of the body weight.

cell lines [9] = experiment: Sulfo rhodamine B (SRB) assay (cytotoxicity); type: cell-based
Procedure: SRB assay was performed to estimate the cytotoxicity of DT(GSHMe)2. SRB binds to total protein content of the cells and is independent of metabolic activity. Cells were seeded at the density of 6000 cells per well in 96 well microtiter plate. Cells were treated with varying concentration of DT(GSHMe)2 from 0.001 μM-1000 μM for different time intervals (24, 48 and 72 h). At each time point, 100 μL of ice cold 10% (wt/vol) trichloroacetic acid (TCA) was added to each well and were incubated for 1 h at 4°C followed by washing the plate four times under running tap water. Plates were then air dried and 100 μL of 0.057% SRB solution was added in each well for 30 min. Plates were quickly rinsed four times with 1% (v/v) acetic acid and air dried. To develop color, 200 μL of 10 mM Tris base solution (pH 10.5) was added to each well and kept on gyratory shaker for 5 min. The color intensity was measured fluorometrically at excitation 488 nm and emission at 585 nm. Surviving fraction was calculated and plotted for the concentration range 0.001 μM-1000 μM as a function of time.

cell lines [10] = experiment: MTT assay (cytotoxicity); type: cell-based
Procedure: To confirm the results from SRB assay, MTT assay which measures cell metabolic activity was performed to correlate the results obtained using SRB assay. Exponentially growing cells were plated in a 96 well microtitre plate at a cell density of 4000 cells per well 24 h before treatment. Cells were treated with varying concentrations of the drug for different time intervals (24, 48, and 72 h). At the end of treatment, both the treated cells and untreated control were incubated with MTT at final concentration of 0.1mg/mL for 3 h at 37°C and the medium was removed thereafter. Cells from each treatment were lysed and the formazan crystals were dissolved using 150 μL of DMSO for 30 min. Optical density of extracts at 570 nm was measured (reference filter: 630 nm). Surviving fraction was determined and was plotted against concentration as a function of time.

BMG-1 cells = experiment: Cell cycle analysis by flow cytometry (PI); type: cell-based, human
Procedure: 10^5 cells per well were plated in a Petri dishes and kept in the incubator overnight at 37°C. Following day, cells were treated with different drug concentrations (0.01 μM –1000 μM). At specific time points, media was carefully removed and cells were harvested in micro centrifuge tubes. Cells were centrifuged at 1200 rpm for 6 min. Supernatant was removed and 700 μL of 80% cold ethanol was added drop wise. Pellet was uniformly dispersed and samples were stored at 4°C for at least 24 h. Samples were centrifuged to remove supernatant and RNAse at a final concentration of 0.5 mg/mL was added to the pellet and incubated at 37°C for 1 h. Finally Propidium Iodide (PI) solution at a final concentration of 10μg/mL was added and the samples were analyzed by flow cytometry.

[11] = In vivo total glutathione estimation from tumor, RBC and plasma; parameters: species or system BALB/c mice bearing EA tumors; conditions: n = 3
Procedure: Levels of total Glutathione (GSH/GSSG) were estimated from tumor, RBC and plasma isolated from BALB/c mice bearing EA tumors, after injection of unlabeled 100 μM DT(GSHMe)2 (100 μL). At time points (15 min, 30 min, 1, 2and 4 h), blood samples were withdrawn and tumors were excised. Tumors were homogenized in 3 volumes of 5% sulfosalicylic acid (SSA) and centrifuged at 10,000 x g for 10 min at 4°C. Blood was centrifuged and the plasma fraction was separated from RBC pellet. To each RBC and plasma fractions, equal volume of 5% SSA was added, followed by vortexing and centrifugation at 10,000 x g for 10 min at 4°C. Supernatant was collected and used for estimating total glutathione levels.

[12] = 0.25 h after injection of 100 μM unlabeled compound

CCOC(=O)CNC(=O)[C@H](CS)NC(=O)CC[C@H](NC(=O)CN(CCN(CCN(CC(=O)O)CC(=O)N[C@@H](CCC(=O)N[C@@H](CS)C(=O)NCC(=O)OCC)C(=O)O)CC(=O)O)CC(=O)O)C(=O)O [68Ga-DT(GSHMe)2, metal not drawn]
block of uptake at tumor site by GSH [1]: 95.57%
tissue to tissue ratio at 2 h (in vivo [2]): 26.4

CCOC(=O)CNC(=O)[C@H](CS)NC(=O)CC[C@H](NC(=O)CN(CCN(CCN(CC(=O)O)CC(=O)N[C@@H](CCC(=O)N[C@@H](CS)C(=O)NCC(=O)OCC)C(=O)O)CC(=O)O)CC(=O)O)C(=O)O [99mTc-DT(GSHMe)2, metal not drawn]
maximal transport rate velocity (Vmax) (EAT cells): 0.478 µM/min
Km (EAT cells; Eadie-Hofstee, read-out: Michaelis constant (Km) of transport): 2.25 µM
Bmax [3]: 17.2 nM
tracer localisation tumor versus inflammation [4]: substantial amount of radiotracer concentration at tumor site
Bmax [5]: 91.02 nM
tissue to tissue ratio at 2 h (in vivo [6]): 24
logD ([7]; pH 7.4): -1.31 ± 0.104
biological half-life t1/2 (Slow) [8]: 15.44
t1/2 slow [8]: 15.44 h
biological half-life t1/2 (Fast) ([8]; 0.25 mg/kg): 8.8 min

CCOC(=O)CNC(=O)[C@H](CS)NC(=O)CC[C@H](NC(=O)CN(CCN(CCN(CC(=O)O)CC(=O)N[C@@H](CCC(=O)N[C@@H](CS)C(=O)NCC(=O)OCC)C(=O)O)CC(=O)O)CC(=O)O)C(=O)O [DT(GSHMe)2, Diethylene triaminpentaacetic acid bis glutathione monoethylester]
cell population remained viable (cell lines [9]; 1000 μM, 72 h): 11.57 ± 3.84%
IC50 (cell lines [9]; cell line not stated, read-out: IC50 (nearly 50% cell lysis)): ~500 µM
toxicity (cell lines [9]; lower concentration (below 100 μM)): nontoxic
toxicity on cell lines (cell lines [10]; 100 μM concentration, in vitro evaluations on cell lines): minimal toxicity
toxicity (cell lines [10]; MTT, lower concentration (below 100 μM), 24-72 h): nontoxic
G1 cell population (BMG-1 cells; BMG-1, 1 μM, 24 h): 83.2 ± 4.16%
G1 cell population (BMG-1 cells; BMG-1, 1000 μM, 24 h): 49.5 ± 2.47%
increase of apoptotic cells versus control (BMG-1 cells; BMG-1, 1000 μM, 24 h): approximately 14 folds
apoptotic cells (BMG-1 cells; BMG-1, 1000 μM, 24 h treatment): 23.4 ± 1.17%
Plasma total glutathione [11, 12]: 0.13 ± 0.029 μmoles of GSH/ml
RBC total glutathione [11, 12]: 0.38 ± 0.021 μmoles of GSH/ml
Tumor total glutathione [11, 12]: 3 ± 0.007 μmoles of GSH/g tissue weight
Plasma total glutathione ([11]; 0.5 h after injection): 0.16 ± 0.028 μmoles of GSH/ml
RBC total glutathione ([11]; 0.5 h after injection): 0.39 ± 0.026 μmoles of GSH/ml
Tumor total glutathione ([11]; 0.5 h after injection): 4.3 ± 0.019 μmoles of GSH/g tissue weight
Plasma total glutathione ([11]; 1 h after injection): 0.28 ± 0.127 μmoles of GSH/ml
RBC total glutathione ([11]; 1 h after injection): 0.45 ± 0.010 μmoles of GSH/ml
Tumor total glutathione ([11]; 1 h after injection): 4.5 ± 0.070 μmoles of GSH/g tissue weight
Plasma total glutathione ([11]; 2 h after injection): 0.32 ± 0.155 μmoles of GSH/ml
RBC total glutathione ([11]; 2 h after injection): 0.5 ± 0.11 μmoles of GSH/ml
Tumor total glutathione ([11]; 2 h after injection): 4.9 ± 0.010 μmoles of GSH/g tissue weight
Plasma total glutathione ([11]; 4 h after injection): 0.23 ± 0.041 μmoles of GSH/ml
RBC total glutathione ([11]; 4 h after injection): 0.39 ± 0.001 μmoles of GSH/ml
Tumor total glutathione ([11]; 4 h after injection): 4.1 ± 0.010 μmoles of GSH/g tissue weight

N[C@@H](CCC(=O)N[C@@H](CS)C(=O)NCC(=O)O)C(=O)O [glutathione, Glutathione, reference compound]
logD ([7]; shake-flask 1-octanol/PBS pH 7.4, equal volumes, vortexed 10 min, centrifuged 5000 rpm 5 min, gamma counter, repeated thrice, read-out: Log P): -3.23 ± 0.141
